Values joined by “and” are separate entries in the source; they are usually repeats but may differ in a detail not shown here. Equal entries are not always repeated. Structures can show the parent of a compound that is named as a salt.
target: T1, recombinant guanylate cyclase reporter cell line (Rattus norvegicus, UniProt P19686+P20595); experiment: Effect on a recombinant guanylate cyclase reporter cell line; type: cell-based; conditions: MEC = minimum effective concentration; in some cases mean values for individual determinations
T1 construct: expressed in transfected cells; host or cells: recombinant reporter cell line
T1 sequence (P19686 1-690): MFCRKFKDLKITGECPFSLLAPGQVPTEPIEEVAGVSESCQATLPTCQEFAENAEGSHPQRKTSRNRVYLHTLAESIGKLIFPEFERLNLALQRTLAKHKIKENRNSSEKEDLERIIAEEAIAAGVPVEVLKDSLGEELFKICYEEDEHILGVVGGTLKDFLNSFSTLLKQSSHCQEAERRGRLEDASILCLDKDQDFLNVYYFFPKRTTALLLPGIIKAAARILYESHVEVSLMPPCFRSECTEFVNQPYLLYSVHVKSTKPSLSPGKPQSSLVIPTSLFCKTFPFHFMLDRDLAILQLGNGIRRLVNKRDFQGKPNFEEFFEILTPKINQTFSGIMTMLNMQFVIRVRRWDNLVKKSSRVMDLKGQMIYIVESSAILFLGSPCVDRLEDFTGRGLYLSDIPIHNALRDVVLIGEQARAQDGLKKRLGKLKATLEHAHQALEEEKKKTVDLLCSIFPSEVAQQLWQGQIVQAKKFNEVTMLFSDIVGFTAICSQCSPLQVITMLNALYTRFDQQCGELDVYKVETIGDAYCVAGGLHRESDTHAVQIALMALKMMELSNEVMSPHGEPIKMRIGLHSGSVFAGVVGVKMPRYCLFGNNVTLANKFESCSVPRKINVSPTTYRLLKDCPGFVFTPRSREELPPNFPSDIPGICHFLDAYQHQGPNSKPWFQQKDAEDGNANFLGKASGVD
T1 sequence (P20595 1-619): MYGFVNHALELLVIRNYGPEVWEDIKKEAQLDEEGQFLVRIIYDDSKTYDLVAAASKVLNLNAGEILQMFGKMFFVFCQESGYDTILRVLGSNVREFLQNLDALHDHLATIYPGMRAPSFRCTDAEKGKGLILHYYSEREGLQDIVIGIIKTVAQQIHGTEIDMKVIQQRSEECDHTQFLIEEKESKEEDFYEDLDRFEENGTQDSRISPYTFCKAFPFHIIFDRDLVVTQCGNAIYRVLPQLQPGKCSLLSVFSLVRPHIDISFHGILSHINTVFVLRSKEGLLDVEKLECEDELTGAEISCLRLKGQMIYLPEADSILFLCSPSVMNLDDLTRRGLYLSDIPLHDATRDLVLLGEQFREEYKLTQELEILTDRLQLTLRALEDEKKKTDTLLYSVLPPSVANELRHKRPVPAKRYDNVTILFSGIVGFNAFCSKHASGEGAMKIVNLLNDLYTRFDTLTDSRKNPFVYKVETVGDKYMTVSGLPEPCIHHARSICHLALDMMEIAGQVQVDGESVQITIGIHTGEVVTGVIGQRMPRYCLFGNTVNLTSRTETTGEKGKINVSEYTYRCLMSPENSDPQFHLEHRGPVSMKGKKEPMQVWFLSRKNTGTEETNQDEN
Protocol: B-2. Effect on a Recombinant Guanylate Cyclase Reporter Cell Line
The cellular effect of the inventive compounds is determined using a recombinant guanylate cyclase reporter cell line, as described in F. Wunder et al., Anal. Biochem. 339, 104-112 (2005).
Representative MEC values (MEC=minimum effective concentration) for the inventive compounds are shown in the table below (in some cases as mean values for individual determinations): […]

| Compound | MEC |
| --- | --- |
| COCCc1nnc(-c2c(C)nc3c(OCC4CCCCC4)cccn23)o1 [Example 68] | 3.0 µM |
| Cc1nc(-c2nnc(-c3c(C)nc4c(OCC5CCCCC5)cccn34)o2)cs1 [Example 69] | 3.0 µM |
| CCC(C)c1nnc(-c2c(C)nc3c(OCC4CCCCC4)cccn23)o1 (stereo not shown) [Example 70] | 3.0 µM |
| Cc1nc2c(OCC3CCCCC3)cccn2c1-c1nnc(CN2CCCC2=O)o1 [Example 71] | 3.0 µM |
| Cc1nc(C)n(Cc2nnc(-c3c(C)nc4c(OCC5CCCCC5)cccn34)o2)n1 [Example 72] | 3.0 µM |
| Cc1nc2c(OCC3CCCCC3)cccn2c1-c1nnc(C2CCS(=O)(=O)C2)o1 (stereo not shown) [Example 73] | 3.0 µM |
| Cc1nc2c(OCC3CCCCC3)cccn2c1-c1nnc(C2CC2)o1 [Example 74] | 3.0 µM |
| Cc1cc(OCc2ncccc2F)c2nc(C)c(-c3cn[nH]c3)n2c1 [Example 84, 8-[(3-fluoropyridin-2-yl)methoxy]-2,6-dimethyl-3-(1H-pyrazol-4-yl)imidazo[1,2-a]pyridine] | 1.0 µM |
| Cc1cc(OCc2ncccc2F)c2nc(C)c(-c3cnn(CC(C)(C)N)c3)n2c1 [Example 85, 1-(4-{8-[(3-Fluoropyridin-2-yl)methoxy]-2,6-dimethylimidazo[1,2-a]pyridin-3-yl}-1H-pyrazol-1-yl)-2-methylpropan-2-amine] | 3.0 µM |
| Cc1cc(OCc2c(F)ccc(F)c2F)c2nc(C)c(-c3cnn(CC(C)(C)N)c3)n2c1 [Example 87, 1-(4-{2,6-Dimethyl-8-[(2,3,6-trifluorobenzyl)oxy]imidazopyridin-3-yl}-1H-pyrazol-1-yl)-2-methylpropan-2-amine] | 0.1 µM |
| Cc1nc2c(OCc3c(F)cccc3F)cccn2c1-c1cnn(CC(C)(C)N)c1 [Example 90, 1-(4-{8-[(2,6-Difluorobenzyl)oxy]-2-methylimidazo[1,2-a]pyridin-3-yl}-1H-pyrazol-1-yl)-2-methylpropan-2-amine] | 0.3 µM |
| Cc1cc(OCc2c(F)cccc2F)c2nc(C)c(-c3cnn(CCN4CCC(F)(F)CC4)c3)n2c1 [Example 92, 8-[(2,6-Difluorobenzyl)oxy]-3-{1-[2-(4,4-difluoropiperidin-1-yl)ethyl]-1H-pyrazol-4-yl}-2,6-dimethylimidazo[1,2-a]pyridine] | 0.03 µM |
| Cc1cc(OCc2c(F)cccc2F)c2nc(C)c(-c3cnn(CCN4CCN(C)CC4)c3)n2c1 [Example 94, 8-[(2,6-Difluorobenzyl)oxy]-2,6-dimethyl-3-{1-[2-(4-methylpiperazin-1-yl)ethyl]-1H-pyrazol-4-yl}imidazo[1,2-a]pyridine] | 0.3 µM |

Continued, values first:

| MEC | Compound |
| --- | --- |
| 3.0 µM | Cc1cc(OCc2c(F)cccc2F)c2nc(C)c(-c3cncc(C(=O)O)c3)n2c1 [Example 76, 5-{8-[(2,6-Difluorobenzyl)oxy]-2,6-dimethylimidazo[1,2-a]pyridin-3-yl}nicotinic acid trifluoroacetate] |
| 0.1 µM | Cc1cc(OCc2c(F)cccc2F)c2nc(C)c(-c3cncc(C(N)=O)c3)n2c1 [Example 77, 5-{8-[(2,6-Difluorobenzyl)oxy]-2,6-dimethylimidazo[1,2-a]pyridin-3-yl}nicotinamide] |
| 0.1 µM | Cc1cc(OCc2c(F)cccc2F)c2nc(C)c(-c3cncc(C(=O)NC4CC4)c3)n2c1 [Example 78, N-Cyclopropyl-5-{8-[(2,6-difluorobenzyl)oxy]-2,6-dimethylimidazo[1,2-a]pyridin-3-yl}nicotinamide trifluoroacetate] |
| 0.3 µM | Cc1cc(OCc2c(F)cccc2F)c2nc(C)c(-c3nccc(C(N)=O)n3)n2c1 [Example 80, 2-{8-[(2,6-Difluorobenzyl)oxy]-2,6-dimethylimidazo[1,2-a]pyridin-3-yl}pyrimidine-4-carboxamide trifluoroacetate] |
| 3.0 µM | Cc1cc(OCc2c(F)cccc2F)c2nc(C)c(-c3nccc(C(=O)NC4CC4)n3)n2c1 [Example 81, N-Cyclopropyl-2-{8-[(2,6-difluorobenzyl)oxy]-2,6-dimethylimidazo[1,2-a]pyridin-3-yl}pyrimidine-4-carboxamide trifluoroacetate] |
| 0.1 µM | Cc1cc(OCc2c(F)cccc2F)c2nc(C)c(-c3cn[nH]n3)n2c1 [Example 82, 8-[(2,6-difluorobenzyl)oxy]-2,6-dimethyl-3-(2H-1,2,3-triazol-4-yl)imidazo[1,2-a]pyridine] |
| 0.3 µM | Cc1cc(OCc2c(F)cccc2F)c2nc(C)c(-c3cnn(CC(C)(C)N)n3)n2c1 [Example 83, 1-(4-{8-[(2,6-Difluorobenzyl)oxy]-2,6-dimethylimidazo[1,2-a]pyridin-3-yl}-2H-1,2,3-triazol-2-yl)-2-methylpropan-2-amine] |
| 0.03 µM | Cc1cc(OCc2c(F)ccc(F)c2F)c2nc(C)c(-c3cn[nH]c3)n2c1 [Example 86, 2,6-dimethyl-3-(1H-pyrazol-4-yl)-8-[(2,3,6-trifluorobenzyl)oxy]imidazo[1,2-a]pyridine] |
| 0.01 µM | Cc1cc(OCc2c(F)cccc2F)c2nc(C)c(-c3cn[nH]c3)n2c1 [Example 88, 8-[(2,6-difluorobenzyl)oxy]-2,6-dimethyl-3-(1H-pyrazol-4-yl)imidazo[1,2-a]pyridine] |
| 0.03 µM | Cc1cc(OCc2c(F)cccc2F)c2nc(C)c(-c3cnn(CC(C)(C)N)c3)n2c1 [Example 89, 1-(4-{8-[(2,6-Difluorobenzyl)oxy]-2,6-dimethylimidazo[1,2-a]pyridin-3-yl}-1H-pyrazol-1-yl)-2-methylpropan-2-amine] |
| 0.1 µM | Cc1cc(OCc2c(F)cccc2F)c2nc(C)c(-c3cnn(CCO)c3)n2c1 [Example 91, 2-(4-{8-[(2,6-difluorobenzyl)oxy]-2,6-dimethylimidazo[1,2-a]pyridin-3-yl}-1H-pyrazol-1-yl)ethanol] |
| 0.1 µM | Cc1cc(OCc2c(F)cccc2F)c2nc(C)c(-c3cnn(CCN4CCS(=O)(=O)CC4)c3)n2c1 [Example 93, 8-[(2,6-Difluorobenzyl)oxy]-3-{1-[2-(1,1-dioxidothiomorpholin-4-yl)ethyl]-1H-pyrazol-4-yl}-2,6-dimethylimidazo[1,2-a]pyridine] |
| 0.3 µM | Cc1cc(OCc2c(F)cccc2F)c2nc(C)c(-c3cnn(CCN4CC(O)C4)c3)n2c1 [Example 95, 1-[2-(4-{8-[(2,6-Difluorobenzyl)oxy]-2,6-dimethylimidazo[1,2-a]pyridin-3-yl}-1H-pyrazol-1-yl)ethyl]azetidin-3-ol trifluoroacetate] |
| 0.065 µM | Cc1cc(OCc2c(F)cccc2F)c2nc(C)c(-c3cnn(CCS(C)(=O)=O)c3)n2c1 [Example 96, 8-[(2,6-Difluorobenzyl)oxy]-2,6-dimethyl-3-{1-[2-(methylsulphonyl)ethyl]-1H-pyrazol-4-yl}imidazo[1,2-a]pyridine] |
| 0.3 µM | Cc1cc(OCc2c(F)cccc2F)c2nc(C)c(-c3cnn(CCOC(N)=O)c3)n2c1 [Example 97, 2-(4-{8-[(2,6-Difluorobenzyl)oxy]-2,6-dimethylimidazo[1,2-a]pyridin-3-yl}-1H-pyrazol-1-yl)ethyl carbamate] |
| 0.03 µM and 3.0 µM | Cc1cc(OCc2c(F)cccc2F)c2nc(C)c(-c3cnn(Cc4cc(C)on4)c3)n2c1 [Example 98, 8-[(2,6-Difluorobenzyl)oxy]-2,6-dimethyl-3-{1-[(5-methyl-1,2-oxazol-3-yl)methyl]-1H-pyrazol-4-yl}imidazo[1,2-a]pyridine] |
| 0.03 µM and 0.1 µM | Cc1cc(OCc2c(F)cccc2F)c2nc(C)c(-c3cnn(CCc4c(C)n[nH]c4C)c3)n2c1 [Example 99, 8-[(2,6-Difluorobenzyl)oxy]-3-{1-[2-(3,5-dimethyl-1H-pyrazol-4-yl)ethyl]-1H-pyrazol-4-yl}-2,6-dimethylimidazo[1,2-a]pyridine] |
| 0.03 µM | Cc1cc(OCc2c(F)cccc2F)c2nc(C)c(-c3cnn(CCCC#N)c3)n2c1 [Example 100, 4-(4-{8-[(2,6-Difluorobenzyl)oxy]-2,6-dimethylimidazo[1,2-a]pyridin-3-yl}-1H-pyrazol-1-yl)butanonitrile] |
